Measured values taken from ChEMBL document CHEMBL1201862, “PubChem BioAssay data set” (2004).
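Dose response: 5 concentrations. Exposure: 48 h. Format: 96-well plates. Endpoint: linear interpolation; highest concentration if not reached. The concentration for 50% growth inhibition is given as GI50.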 The source made the active and inactive calls. Rule as the data show it: active = GI50 up to about 1.1 µM and inactive = higher.

Tests used:
Experiment in all cases: NCI anticancer screen, dose series, 48 h
[1] = system: 786-0
[2] = system: A498
[3] = system: A549
[4] = system: CAKI-1
[5] = system: CCRF-CEM
[6] = system: EKVX
[7] = system: HCC 2998
[8] = system: HCT-116
[9] = system: HCT-15
[10] = system: HL-60
[11] = system: HOP-62
[12] = system: HOP-92
[13] = system: HT-29
[14] = system: IGROV-1
[15] = system: K562
[16] = system: KM-20L2
[17] = system: KM12
[18] = system: LOX IMVI
[19] = system: M14
[20] = system: MOLT-4
[21] = system: NCI-H226
[22] = system: NCI-H23
[23] = system: NCI-H460
[24] = system: NCI-H522
[25] = system: OVCAR-3
[26] = system: OVCAR-5
[27] = system: OVCAR-8
[28] = system: RXF 393
[29] = system: SF-268
[30] = system: SF-295
[31] = system: SK-MEL-28
[32] = system: SK-MEL-2
[33] = system: SK-MEL-5
[34] = system: SK-OV-3
[35] = system: SN12C
[36] = system: SNB-19
[37] = system: SNB-75
[38] = system: SNB-78
[39] = system: SR
[40] = system: SW-620
[41] = system: TK-10
[42] = system: U-251
[43] = system: UACC-257
[44] = system: UACC-62
[45] = system: UO-31
[46] = system: ACHN
[47] = system: BT-549
[48] = system: COLO 205
[49] = system: DU-145
[50] = system: Hs-578T
[51] = system: MCF7
[52] = system: MDA-MB-231
[53] = system: MDA-MB-435
[54] = system: MDA-N
[55] = system: Malme-3M
[56] = system: NCI/ADR-RES
[57] = system: OVCAR-4
[58] = system: PC-3
[59] = system: RPMI-8226
[60] = system: SF-539
[61] = system: T47D

SMILES: Cn1c(=O)nc2n(-c3ccc(Cl)cc3)c3ccc(Cl)cc3nc-2c1=O
- GI50 [1]: 12.2 µM (inactive)
- GI50 [2]: 5.58 µM (inactive)
- GI50 [3]: 5.75 µM (inactive)
- GI50 [4]: 4.45 µM (inactive)
- GI50 [5]: 13.6 µM (inactive)
- GI50 [6]: 12.9 µM (inactive)
- GI50 [7]: 7.76 µM (inactive)
- GI50 [8]: 8.55 µM (inactive)
- GI50 [9]: 8.02 µM
- GI50 [10]: 2.68 µM (inactive)
- GI50 [11]: 18 µM (inactive)
- GI50 [12]: 7.05 µM (inactive)
- GI50 [13]: 8.79 µM (inactive)
- GI50 [14]: 19.5 µM (inactive)
- GI50 [15]: 5.02 µM (inactive)
- GI50 [16]: 4.88 µM (inactive)
- GI50 [17]: 14.5 µM (inactive)
- GI50 [18]: 3.14 µM (inactive)
- GI50 [19]: 9.06 µM (inactive)
- GI50 [20]: 16.8 µM (inactive)
- GI50 [21]: 11.5 µM (inactive)
- GI50 [22]: 2.36 µM (inactive)
- GI50 [23]: 5.98 µM (inactive)
- GI50 [24]: 6.35 µM (inactive)
- GI50 [25]: 2.57 µM (inactive)
- GI50 [26]: 16.1 µM (inactive)
- GI50 [27]: 3.98 µM (inactive)
- GI50 [28]: 2.04 µM (inactive)
- GI50 [29]: 6.78 µM (inactive)
- GI50 [30]: 4.88 µM (inactive)
- GI50 [31]: 9.23 µM (inactive)
- GI50 [32]: 4.36 µM (inactive)
- GI50 [33]: 1.04 µM (active)
- GI50 [34]: 88.7 µM (inactive)
- GI50 [35]: 13.1 µM (inactive)
- GI50 [36]: > 10 µM (inactive)
- GI50 [37]: 1.46 µM (inactive)
- GI50 [38]: 14.8 µM (inactive)
- GI50 [39]: 7.62 µM (inactive)
- GI50 [40]: 4.44 µM (inactive)
- GI50 [41]: 18.2 µM (inactive)
- GI50 [42]: 1.98 µM (inactive)
- GI50 [43]: 3.4 µM (inactive)
- GI50 [44]: 1.07 µM (active)
- GI50 [45]: 18 µM (inactive)

SMILES: C=CCNC1=C2C[C@@H](C)C[C@@H](OC)[C@@H](OC(=O)CCCN)[C@H](C)/C=C(\C)[C@@H](OC(N)=O)[C@H](OC)/C=C\C=C(/C)C(=O)NC(=CC1=O)C2=O
- GI50 [1]: 17.1 µM (inactive)
- GI50 [2]: 20.5 µM (inactive)
- GI50 [3]: 15.7 µM (inactive)
- GI50 [46]: 18.8 µM (inactive)
- GI50 [47]: 8.99 µM (inactive)
- GI50 [4]: 19.8 µM (inactive)
- GI50 [5]: 10.6 µM (inactive)
- GI50 [48]: 3.54 µM (inactive)
- GI50 [49]: 13.8 µM (inactive)
- GI50 [6]: 18.7 µM (inactive)
- GI50 [7]: 15.5 µM (inactive)
- GI50 [8]: 15.7 µM (inactive)
- GI50 [9]: 19.4 µM
- GI50 [10]: 4.43 µM (inactive)
- GI50 [11]: 6.24 µM (inactive)
- GI50 [12]: 14.7 µM (inactive)
- GI50 [13]: 5.37 µM (inactive)
- GI50 [50]: 20.9 µM (inactive)
- GI50 [14]: 13.5 µM (inactive)
- GI50 [15]: 9.16 µM (inactive)
- GI50 [17]: 4.14 µM (inactive)
- GI50 [18]: 5.45 µM (inactive)
- GI50 [19]: 9.38 µM (inactive)
- GI50 [51]: 6.98 µM (inactive)
- GI50 [52]: 15 µM (inactive)
- GI50 [53]: 20.3 µM (inactive)
- GI50 [54]: 12.6 µM (inactive)
- GI50 [20]: 14 µM (inactive)
- GI50 [55]: 11.4 µM (inactive)
- GI50 [21]: 17.1 µM (inactive)
- GI50 [22]: 13.9 µM (inactive)
- GI50 [23]: 14.9 µM (inactive)
- GI50 [24]: 6.82 µM (inactive)
- GI50 [56]: > 100 µM (inactive)
- GI50 [25]: 16.7 µM (inactive)
- GI50 [57]: 20.6 µM (inactive)
- GI50 [26]: 16 µM (inactive)
- GI50 [27]: 19.4 µM (inactive)
- GI50 [58]: 14 µM (inactive)
- GI50 [59]: 14.3 µM (inactive)
- GI50 [28]: 20 µM (inactive)
- GI50 [29]: 13.2 µM (inactive)
- GI50 [30]: 15.9 µM (inactive)
- GI50 [60]: 12.6 µM (inactive)
- GI50 [31]: 16.3 µM (inactive)
- GI50 [32]: 15.9 µM (inactive)
- GI50 [33]: 8.39 µM (inactive)
- GI50 [34]: 14.6 µM (inactive)
- GI50 [35]: 17.4 µM (inactive)
- GI50 [36]: 15.8 µM (inactive)
- GI50 [37]: 10.4 µM (inactive)
- GI50 [39]: 6.59 µM (inactive)
- GI50 [40]: 19.7 µM (inactive)
- GI50 [61]: 27.4 µM (inactive)
- GI50 [41]: 16.7 µM (inactive)
- GI50 [42]: 9.44 µM (inactive)
- GI50 [43]: 15.1 µM (inactive)
- GI50 [44]: 15.2 µM (inactive)
- GI50 [45]: 18.4 µM (inactive)

SMILES: COc1ccc(C(c2c[nH]c3ccc(Br)cc23)c2c[nH]c3ccc(Br)cc23)cc1
- GI50 [1]: 0.215 µM (active)
- GI50 [2]: 1.04 µM (active)
- GI50 [3]: 0.346 µM (active)
- GI50 [46]: 0.24 µM (active)
- GI50 [47]: 1.51 µM (inactive)
- GI50 [4]: 0.382 µM (active)
- GI50 [5]: 0.138 µM (active)
- GI50 [48]: 0.17 µM (active)
- GI50 [49]: 0.364 µM (active)
- GI50 [6]: 0.38 µM (active)
- GI50 [7]: 0.181 µM (active)
- GI50 [8]: 0.149 µM (active)
- GI50 [9]: 0.214 µM
- GI50 [10]: 0.0828 µM (active)
- GI50 [11]: 0.411 µM (active)
- GI50 [12]: 0.213 µM (active)
- GI50 [13]: 0.294 µM (active)
- GI50 [50]: 0.575 µM (active)
- GI50 [14]: 0.264 µM (active)
- GI50 [15]: 0.167 µM (active)
- GI50 [17]: 0.197 µM (active)
- GI50 [18]: 0.137 µM (active)
- GI50 [19]: 0.237 µM (active)
- GI50 [51]: 0.21 µM (active)
- GI50 [52]: 0.242 µM (active)
- GI50 [53]: 0.172 µM (active)
- GI50 [54]: 0.208 µM (active)
- GI50 [20]: 0.142 µM (active)
- GI50 [55]: 0.811 µM (active)
- GI50 [21]: 0.938 µM (active)
- GI50 [22]: 0.367 µM (active)
- GI50 [23]: 0.228 µM (active)
- GI50 [24]: 0.173 µM (active)
- GI50 [56]: 0.357 µM (active)
- GI50 [25]: 0.217 µM (active)
- GI50 [57]: 0.267 µM (active)
- GI50 [26]: 0.385 µM (active)
- GI50 [27]: 0.22 µM (active)
- GI50 [58]: 0.284 µM (active)
- GI50 [59]: 0.175 µM (active)
- GI50 [28]: 0.278 µM (active)
- GI50 [29]: 0.33 µM (active)
- GI50 [30]: 0.313 µM (active)
- GI50 [60]: 0.51 µM (active)
- GI50 [31]: 0.303 µM (active)
- GI50 [32]: 0.366 µM (active)
- GI50 [33]: 0.359 µM (active)
- GI50 [34]: 1.24 µM (inactive)
- GI50 [35]: 0.31 µM (active)
- GI50 [36]: 0.509 µM (active)
- GI50 [37]: 0.352 µM (active)
- GI50 [39]: 0.151 µM (active)
- GI50 [40]: 0.29 µM (active)
- GI50 [61]: 0.446 µM (active)
- GI50 [41]: 0.993 µM (active)
- GI50 [42]: 0.22 µM (active)
- GI50 [43]: 0.29 µM (active)
- GI50 [44]: 0.218 µM (active)
- GI50 [45]: 0.394 µM (active)
